According to patent US12065445B2, “CDK2 inhibitors and methods of using the same” (Cedilla Therapeutics, Inc., priority 2021, dated 2024):

Key:
[1] = tested on: Kuramochi cells; assay: BrdU Cell Proliferation Assay; type: cell-based; conditions: read-out: BrdU - KURAMOCHI.1: IC50
Outline: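 Kuramochi cells were seeded at 2,000 cells/well, adhered overnight, then treated with a 10-point, 3-fold compound dilution series for 4 days. Proliferation was measured by a 1-hour BrdU pulse, anti-BrdU peroxidase colorimetric ELISA and 450 nm absorbance. Values were background-subtracted and normalized to DMSO wells.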

[2] = tested on: Kuramochi cells labeled with mApple-H2B; assay: IncuCyte Cell Proliferation Assay; type: cell-based; conditions: 72 h
Outline: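 Cells imaged at 0 and 72 h after compound treatment (10 points, ½ log dilution, 20 μM top), with fluorescent nuclei counted. Fold change in count was normalized to DMSO wells and fitted to dose-response curves to give GI50.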

Row | SMILES | IC50 [1] | IC50 [2]
1 | CNC(=O)[C@@H](NC(=O)[C@@H]1CN(C(=O)c2cnn(Cc3ccccc3)c2)CC12CN(C(=O)N(C)C1CC1)C2)[C@@H](C)OCC1CCCCC1 [I-295] | 5 to 10 µM | 5 to 20 µM
2 | C[C@@H](OCC1CCCCC1)[C@H](NC(=O)[C@@H]1CN(C(=O)c2cncs2)CC12CN(C(=O)[C@H]1CC1(F)F)C2)C(=O)N1CCCCC1 [I-296] | 0.5 to 5 µM | 0.5 to 5 µM
3 | CNC(=O)C(NC(=O)[C@@H]1CN(C(=O)c2cn[nH]c2)CC12CN(C(=O)[C@H]1CC1(C)C)C2)C(O)Cc1ccccc1 (some centres unmarked) [I-298] | > 10 µM | > 20 µM
4 | CNC(=O)[C@@H](NC(=O)[C@@H]1CN(C(=O)c2cnn(Cc3ccccc3)c2)CC12CN(C(=O)[C@H]1CC1(C)C)C2)[C@@H](C)OCC12CC(C(=O)OC)(C1)C2 [I-299] | > 10 µM | > 20 µM
5 | C[C@@H](OCC1CCC(F)(F)CC1)[C@H](NC(=O)[C@@H]1CN(C(=O)c2cn[nH]c2)CC12CN(C(=O)C1(C(F)(F)F)CC1)C2)C(=O)N1CCOCC1 [I-302] | > 10 µM | > 20 µM
6 | C[C@@H](OCC12CCC(CC1)CC2)[C@H](NC(=O)[C@@H]1CN(C(=O)c2cncs2)CC12CN(C(=O)[C@H]1CC1(C)C)C2)C(C)(C)O [I-304] | 0.5 to 5 µM | 0.5 to 5 µM
7 | CO[C@H](C)[C@H](NC(=O)[C@@H]1CN(C(=O)c2cnn(Cc3ccccc3)c2)CC12CN(C(=O)[C@H]1CC1(C)C)C2)C(=O)N1CCC(CN)CC1 [I-306] | > 10 µM | > 20 µM
8 | C[C@@H](OCC1CCCCC1)[C@@H](CO)NC(=O)[C@@H]1CN(C(=O)c2cncs2)CC12CN(C(=O)[C@H]1CC1(C)C)C2 [I-307] | 0.5 to 5 µM | 0.5 to 5 µM
9 | C[C@@H](OCC1CCCCC1)[C@@H](COC1CCCCC1)NC(=O)[C@@H]1CN(C(=O)c2cncs2)CC12CN(C(=O)[C@H]1CC1(C)C)C2 [I-308] | ≤ 0.5 µM | 0.5 to 5 µM
10 | C[C@@H](OCC1CCCCC1)[C@@H](COC(F)(F)F)NC(=O)[C@@H]1CN(C(=O)c2cnn(Cc3ccccc3)c2)CC12CN(C(=O)[C@H]1CC1(C)C)C2 [I-309] | 0.5 to 5 µM | 0.5 to 5 µM
11 | Cc1cc(C(=O)N2CC(C(=O)N[C@H](C(=O)N3CCCCC3)[C@@H](C)OCC3CCCCC3)C3(C2)CN(C(=O)[C@H]2CC2(C)C)C3)sn1 (some centres unmarked) [I-311] | ≤ 0.5 µM | ≤ 0.5 µM
12 | COC[C@H]1CCCN(C(=O)[C@@H](NC(=O)[C@@H]2CN(C(=O)c3cncs3)CC23CN(C(=O)[C@H]2CC2(C)C)C3)[C@@H](C)OCc2ccc(Cl)cc2F)C1 [I-317] | 0.5 to 5 µM | 0.5 to 5 µM
13 | COC[C@H]1CCCN(C(=O)[C@@H](NC(=O)[C@@H]2CN(C(=O)c3cncs3)CC23CN(C(=O)[C@H]2CC2(C)C)C3)[C@@H](C)OCc2ccc(F)cc2)C1 [I-318] | 0.5 to 5 µM | 0.5 to 5 µM
14 | COC[C@H]1CCCN(C(=O)[C@@H](NC(=O)[C@@H]2CN(C(=O)c3cncs3)CC23CN(C(=O)[C@H]2CC2(C)C)C3)[C@@H](C)OCc2ccc(C(F)(F)F)cc2)C1 [I-319] | ≤ 0.5 µM | 0.5 to 5 µM
15 | COC[C@H]1CCCN(C(=O)[C@@H](NC(=O)[C@@H]2CN(C(=O)c3cncs3)CC23CN(C(=O)[C@H]2CC2(C)C)C3)[C@@H](C)OCc2ccccc2F)C1 [I-321] | 0.5 to 5 µM | 0.5 to 5 µM
16 | COC[C@H]1CCCN(C(=O)[C@@H](NC(=O)[C@@H]2CN(C(=O)c3cncs3)CC23CN(C(=O)[C@H]2CC2(C)C)C3)[C@@H](C)OCc2cccc(F)c2)C1 [I-322] | 0.5 to 5 µM | 0.5 to 5 µM
17 | COC[C@H]1CCCN(C(=O)CNC(=O)[C@@H]2CN(C(=O)c3cncs3)CC23CN(C(=O)[C@H]2CC2(C)C)C3)C1 [I-323] | > 10 µM | > 20 µM
18 | COC[C@H]1CCCN(C(=O)[C@@H](C)NC(=O)[C@@H]2CN(C(=O)c3cncs3)CC23CN(C(=O)[C@H]2CC2(C)C)C3)C1 [I-324] | > 10 µM | > 20 µM
19 | COC[C@H]1CCCN(C(=O)[C@H](C)NC(=O)[C@@H]2CN(C(=O)c3cncs3)CC23CN(C(=O)[C@H]2CC2(C)C)C3)C1 [I-325] | > 10 µM | > 20 µM
20 | C[C@@H](OCC1CCC(F)(F)CC1)[C@H](NC(=O)[C@@H]1CN(C(=O)c2cncs2)CC12CN(C(=O)[C@H]1CC1(C)C)C2)C(=O)N1CCC[C@H](COC(F)(F)F)C1 [I-326] | ≤ 0.5 µM | ≤ 0.5 µM
21 | C[C@@H](OCC1CCCCC1)[C@H](NC(=O)[C@@H]1CN(C(=O)c2cncs2)CC12CN(C(=O)[C@H]1CC1(C)C)C2)C(=O)N1CCNCC1 [I-328] | 0.5 to 5 µM | 0.5 to 5 µM
22 | C[C@@H](OCC12CCC(CC1)OC2)[C@H](NC(=O)[C@@H]1CN(C(=O)c2cncs2)CC12CN(C(=O)[C@H]1CC1(C)C)C2)C(=O)N1CCC2(CC1)COC2 [I-336] | > 10 µM | 5 to 20 µM
23 | C[C@@H](OCC1CCOCC1)[C@H](NC(=O)[C@@H]1CN(C(=O)c2cncs2)CC12CN(C(=O)C(C)(C)C1CC1)C2)C(C)(C)O [I-341] | > 10 µM | > 20 µM

Row | SMILES | IC50 [1] | IC50 [2]
24 | CNC(=O)[C@@H](NC(=O)[C@@H]1CN(C(=O)c2cncs2)CC12CN(C(=O)[C@H]1CC1(C)C)C2)[C@@H](C)OCC12CCC(CC1)OC2 [I-342] | 0.5 to 5 µM | 0.5 to 5 µM
25 | CNC(=O)[C@@H](NC(=O)[C@@H]1CN(C(=O)c2cncs2)CC12CN(CC1CCCC1)C2)[C@@H](C)OCC12CCC(CC1)OC2 [I-344, (S)—N-((2S,3R)-3-(2-oxabicyclo[2.2.2]octan-4-ylmethoxy)-1-(methylamino)-1-oxobutan-2-yl)-2-(cyclopentylmethyl)-6-(thiazole-5-carbonyl)-2,6-diazaspiro[3.4]octane-8-carboxamide] | > 10 µM | > 20 µM
26 | CNC(=O)[C@@H](NC(=O)[C@@H]1CN(C(=O)c2cncs2)CC12CN(CC1CCOC1)C2)[C@@H](C)OCC12CCC(CC1)OC2 (some centres unmarked) [I-345] | > 10 µM | > 20 µM
27 | CNC(=O)[C@@H](NC(=O)[C@@H]1CN(C(=O)c2cncs2)CC12CN(C(=O)[C@H]1CC1(C)C)C2)[C@@H](C)OC[C@H]1CC[C@@H](C)CC1 [I-354] | 0.5 to 5 µM | ≤ 0.5 µM
28 | CNC(=O)[C@@H](NC(=O)[C@@H]1CN(C(=O)c2cncs2)CC12CN(C(=O)[C@H]1CC1(C)C)C2)[C@@H](C)OCC1CCC2(CC1)CC2 [I-355] | 0.5 to 5 µM | ≤ 0.5 µM
29 | CNC(=O)C(NC(=O)[C@@H]1CN(C(=O)c2cncs2)CC12CN(C(=O)[C@H]1CC1(C)C)C2)C(O)Cc1ccccc1 (some centres unmarked) [I-356] | > 10 µM | > 20 µM
30 | C[C@@H](OC1(C2CCCCC2)CC1)[C@H](NC(=O)[C@@H]1CN(C(=O)c2cncs2)CC12CN(C(=O)[C@H]1CC1(C)C)C2)C(=O)N1CCCCC1 [I-357] | 5 to 10 µM | 5 to 20 µM
31 | CNC(=O)[C@@H](NC(=O)[C@@H]1CN(C(=O)Cc2cn[nH]c2)CC12CN(C(=O)[C@H]1CC1(C)C)C2)[C@@H](C)OCc1ccccc1 [I-358] | > 10 µM | > 20 µM
32 | CC1(C)C[C@@H]1C(=O)N1CC2(CN(C(=O)c3cnn(Cc4ccccc4)c3)C[C@H]2C(=O)NCc2cccnn2)C1 [I-359] | > 10 µM | > 20 µM
33 | COC[C@H]1CCCN(C(=O)[C@@H](NC(=O)[C@@H]2CN(C(=O)c3cncs3)CC23CN(C(=O)[C@H]2CC2(C)C)C3)[C@@H](C)OC(C)C2CCC(F)(F)CC2)C1 (some centres unmarked) [I-360] | 0.5 to 5 µM | 0.5 to 5 µM
34 | CC(O[C@H](C)[C@H](NC(=O)[C@@H]1CN(C(=O)c2cncs2)CC12CN(C(=O)[C@H]1CC1(C)C)C2)C(=O)N1CCC(F)(F)CC1)C1CCC(F)(F)CC1 (some centres unmarked) [I-361] | 0.5 to 5 µM | 0.5 to 5 µM
35 | CNC(=O)C(NC(=O)[C@@H]1CN(C(=O)c2cncs2)CC12CN(C(=O)[C@H]1CC1(C)C)C2)c1cccc(C2CCCCC2)n1 (some centres unmarked) [I-362] | 0.5 to 5 µM | 5 to 20 µM
36 | Cc1ccc(CNC(=O)[C@@H]2CN(C(=O)c3cnn(Cc4ccccc4)c3)CC23CN(C(=O)[C@H]2CC2(C)C)C3)cc1 [I-363] | 5 to 10 µM | 5 to 20 µM
37 | Cc1ccc(CNC(=O)[C@@H]2CN(C(=O)c3cnn(Cc4ccccc4)c3)CC23CN(C(=O)[C@H]2CC2(C)C)C3)cn1 [I-364] | > 10 µM | 5 to 20 µM
38 | Cc1ccc(CNC(=O)[C@@H]2CN(C(=O)c3cnn(Cc4ccccc4)c3)CC23CN(C(=O)[C@H]2CC2(C)C)C3)nc1 [I-365] | > 10 µM | > 20 µM
39 | Cc1ccc(C(C)NC(=O)[C@@H]2CN(C(=O)c3cnn(Cc4ccccc4)c3)CC23CN(C(=O)[C@H]2CC2(C)C)C3)nn1 (some centres unmarked) [I-366] | 0.5 to 5 µM | 0.5 to 5 µM
40 | COC[C@H]1CCCN(C(=O)[C@@H](NC(=O)[C@@H]2CN(C(=O)c3cncs3)CC23CN(C(=O)[C@H]2CC2(C)C)C3)[C@@H](C)O[C@H](C)C2CCCCC2)C1 [I-367] | 0.5 to 5 µM | 0.5 to 5 µM
41 | CNC(=O)[C@@H](NC(=O)[C@@H]1CN(C(=O)c2cnn(Cc3ccccc3)c2)CC12CN(C(=O)[C@H]1CC1(C)C)C2)[C@@H](C)SCc1ccccc1 [I-368] | > 10 µM | 5 to 20 µM
42 | COC[C@H]1CCCN(C(=O)[C@@H](NC(=O)[C@@H]2CN(C(=O)c3cncs3)CC23CN(C(=O)[C@H]2CC2(C)C)C3)[C@@H](C)O[C@@H](C)C2CCCCC2)C1 [I-369] | 0.5 to 5 µM | 0.5 to 5 µM
43 | CNC(=O)[C@@H](NC(=O)[C@@H]1CN(C(=O)c2cncs2)CC12CN(C(=O)[C@H]1CC1(C)C)C2)[C@@H](C)OCC1CCCC2(CC2)C1 (some centres unmarked) [I-370] | ≤ 0.5 µM | ≤ 0.5 µM
44 | COc1ccc(CNC(=O)[C@@H]2CN(C(=O)c3cnn(Cc4ccccc4)c3)CC23CN(C(=O)[C@H]2CC2(C)C)C3)nn1 [I-371] | > 10 µM | > 20 µM
45 | CNC(=O)[C@@H](NC(=O)[C@@H]1CN(C(=O)c2cnn(Cc3ccccc3)c2)CC12CN(C(=O)[C@H]1CC1(C)C)C2)[C@@H](C)OCC1CCC(C)(C)CC1 [I-372] | ≤ 0.5 µM | ≤ 0.5 µM
46 | CNC(=O)[C@@H](NC(=O)[C@@H]1CN(C(=O)Cc2cnn(Cc3ccccc3)c2)CC12CN(C(=O)[C@H]1CC1(C)C)C2)[C@@H](C)OCc1ccccc1 [I-373] | > 10 µM | > 20 µM
